Reference: PubChem BioAssay AID248 (DTP/NCI, 2004)
Several values for one entry are separate records, joined by “and”; a condition that tells them apart may be missing. Equal entries are not always repeated. Inconclusive results and toxic doses are left out. Cut-off read from the data, not from the text of the source: active = T/C of 150% or more; inactive = T/C below 125%.

System: L1210 leukemia ip in BDF1 mice, survival T/C
Experiment: NCI In Vivo Anticancer Drug Screen. Data for tumor model L1210 Leukemia (intraperitoneal) in B6D2F1 (BDF1) mice
Settings: endpoint: mean survival time, higher = longer survival
Procedure, shortened: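 Tumor cells were implanted, animals were treated, and survival was followed. The result divides the treated measurement by the vehicle-control measurement.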

[1] = dose: 100.0 mg/kg/injection, schedule: Q04DX003 (ip), vehicle: Klucel (hydroxypropylcellulose) (HPC)
[2] = dose: 25.0 mg/kg/injection, schedule: Q01DX009 (ip), vehicle: saline with Tween-80
[3] = dose: 75.0 mg/kg/injection, schedule: Q01DX001 (ip), vehicle: saline
[4] = dose: 150.0 mg/kg/injection, schedule: Q01DX001 (ip), vehicle: saline
[5] = dose: 300.0 mg/kg/injection, schedule: Q01DX001 (ip), vehicle: saline
[6] = dose: 50.0 mg/kg/injection, schedule: Q01DX001 (ip), vehicle: saline
[7] = dose: 100.0 mg/kg/injection, schedule: Q04DX002 (ip), vehicle: saline with Tween-80
[8] = dose: 200.0 mg/kg/injection, schedule: Q04DX002 (ip), vehicle: saline with Tween-80
[9] = dose: 400.0 mg/kg/injection, schedule: Q04DX002 (ip), vehicle: saline with Tween-80
[10] = dose: 100.0 mg/kg/injection, schedule: Q04DX002 (ip), vehicle: Klucel (hydroxypropylcellulose) (HPC)
[11] = dose: 200.0 mg/kg/injection, schedule: Q04DX002 (ip), vehicle: Klucel (hydroxypropylcellulose) (HPC)
[12] = dose: 400.0 mg/kg/injection, schedule: Q04DX002 (ip), vehicle: Klucel (hydroxypropylcellulose) (HPC)
[13] = dose: 50.0 mg/kg/injection, schedule: Q01DX009 (ip), vehicle: saline with Tween-80
[14] = dose: 100.0 mg/kg/injection, schedule: Q01DX009 (ip), vehicle: saline with Tween-80
[15] = dose: 100.0 mg/kg/injection, schedule: Q04DX003 (ip), vehicle: saline with Tween-80
[16] = dose: 200.0 mg/kg/injection, schedule: Q04DX003 (ip), vehicle: saline with Tween-80
[17] = dose: 400.0 mg/kg/injection, schedule: Q04DX003 (ip), vehicle: saline with Tween-80
[18] = dose: 100.0 mg/kg/injection, schedule: Q04DX003 (ip), vehicle: saline
[19] = dose: 200.0 mg/kg/injection, schedule: Q04DX003 (ip), vehicle: saline
[20] = dose: 400.0 mg/kg/injection, schedule: Q04DX003 (ip), vehicle: saline
[21] = dose: 100.0 mg/kg/injection, schedule: Q01DX001 (ip), vehicle: saline
[22] = dose: 200.0 mg/kg/injection, schedule: Q01DX001 (ip), vehicle: saline
[23] = dose: 400.0 mg/kg/injection, schedule: Q01DX001 (ip), vehicle: saline
[24] = dose: 100.0 mg/kg/injection, schedule: Q01DX009 (ip), vehicle: Klucel (hydroxypropylcellulose) (HPC)
[25] = dose: 200.0 mg/kg/injection, schedule: Q01DX009 (ip), vehicle: Klucel (hydroxypropylcellulose) (HPC)
[26] = dose: 100.0 mg/kg/injection, schedule: Q01DX001 (ip), vehicle: Klucel (hydroxypropylcellulose) (HPC)
[27] = dose: 200.0 mg/kg/injection, schedule: Q01DX001 (ip), vehicle: Klucel (hydroxypropylcellulose) (HPC)
[28] = dose: 200.0 mg/kg/injection, schedule: Q04DX003 (ip), vehicle: Klucel (hydroxypropylcellulose) (HPC)
[29] = dose: 400.0 mg/kg/injection, schedule: Q01DX001 (ip), vehicle: Klucel (hydroxypropylcellulose) (HPC)
[30] = dose: 400.0 mg/kg/injection, schedule: Q04DX003 (ip), vehicle: Klucel (hydroxypropylcellulose) (HPC)
[31] = dose: 400.0 mg/kg/injection, schedule: Q01DX009 (ip), vehicle: Klucel (hydroxypropylcellulose) (HPC)

Measured: T/C

CCCCCCCCCCCCCCN(C)C
inactive: dose: 25.0 mg/kg/injection, schedule: Q04DX003 (ip), vehicle: Klucel (hydroxypropylcellulose) (HPC) 107 % of control | dose: 50.0 mg/kg/injection, schedule: Q04DX003 (ip), vehicle: Klucel (hydroxypropylcellulose) (HPC) 108 % of control | [1] 94 % of control and 96 % of control

CCNC(=O)Oc1c(Cl)cc(S(=O)(=O)F)cc1Cl
inactive: dose: 12.5 mg/kg/injection, schedule: Q01DX009 (ip), vehicle: saline with Tween-80 90 % of control | dose: 12.5 mg/kg/injection, schedule: Q04DX002 (ip), vehicle: saline with Tween-80 93 % of control | [2] 103 % of control | dose: 25.0 mg/kg/injection, schedule: Q04DX002 (ip), vehicle: saline with Tween-80 101 % of control | dose: 50.0 mg/kg/injection, schedule: Q04DX002 (ip), vehicle: saline with Tween-80 96 % of control

c1ccc(C(CCCCC(c2ccccc2)c2ccccc2)c2ccccc2)cc1
inactive: [3] 94 % of control | [4] 92 % of control | [5] 93 % of control

Nc1ccc(O)c2ncccc12
inactive: dose: 6.25 mg/kg/injection, schedule: Q01DX009 (ip), vehicle: saline 95 % of control | dose: 12.5 mg/kg/injection, schedule: Q01DX009 (ip), vehicle: saline 92 % of control | [6] 98 % of control

CC1(CO)COC2(CCCCC2)N1 (stereo unspecified)
inactive: [3] 102 % of control | [4] 92 % of control | [5] 96 % of control

C[C@]12CC[C@@H](O)C[C@H]1CC[C@@H]1[C@@H]2CC[C@]2(C)C(=O)CC[C@@H]12
inactive: dose: 100.0 mg/kg/injection, schedule: Q01DX001 (sc), vehicle: steriod suspending solution 101 % of control | [7] 100 % of control | dose: 200.0 mg/kg/injection, schedule: Q01DX001 (sc), vehicle: steriod suspending solution 95 % of control | [8] 96 % of control | dose: 400.0 mg/kg/injection, schedule: Q01DX001 (sc), vehicle: steriod suspending solution 95 % of control | [9] 100 % of control

COc1ccc(OC)c(NCCCN2C(=O)c3ccccc3C2=O)c1
inactive: [10] 87 % of control | [11] 102 % of control | [12] 91 % of control

C[N+](C)(C)C1CC2CC1C2 (stereo unspecified)
inactive: [3] 97 % of control

CNC(=O)C1=Cc2cc(Cl)ccc2OC1
inactive: dose: 75.0 mg/kg/injection, schedule: Q04DX003 (ip), vehicle: saline with Tween-80 98 % of control | dose: 150.0 mg/kg/injection, schedule: Q04DX003 (ip), vehicle: saline with Tween-80 92 % of control | dose: 300.0 mg/kg/injection, schedule: Q04DX003 (ip), vehicle: saline with Tween-80 95 % of control

N#Cc1ccc(Nc2ccc(C#N)cc2)cc1
inactive: [2] 105 % of control | [13] 94 % of control | [14] 94 % of control | [15] 96 % of control | [16] 96 % of control | [17] 91 % of control

CC(C)(Oc1ccc(Cl)cc1)C(=O)O (tested in a mixture with another compound)
inactive: [18] 94 % of control | [19] 91 % of control | [20] 91 % of control

COc1cc(Br)c(CC(=O)c2c[nH]c3ccc(Br)cc23)cc1OC
inactive: [6] 100 % of control | [21] 94 % of control | [22] 105 % of control | [23] 94 % of control

C#CCCCOC(=O)Nc1ccccc1
inactive: dose: 50.0 mg/kg/injection, schedule: Q01DX009 (ip), vehicle: Klucel (hydroxypropylcellulose) (HPC) 97 % of control | [24] 103 % of control | [25] 89 % of control

O=S(=O)(CCO)c1ccc2ccccc2c1
inactive: [26] 101 % of control | [1] 101 % of control | [27] 98 % of control | [28] 97 % of control | [29] 98 % of control | [30] 105 % of control

O=C(O)c1ccncc1C(=O)c1csc2ccccc12
inactive: dose: 25.0 mg/kg/injection, schedule: Q01DX009 (ip), vehicle: saline 108 % of control | dose: 50.0 mg/kg/injection, schedule: Q01DX009 (ip), vehicle: saline 102 % of control | dose: 50.0 mg/kg/injection, schedule: Q04DX003 (ip), vehicle: acetone 99 % of control | dose: 100.0 mg/kg/injection, schedule: Q01DX009 (ip), vehicle: saline 94 % of control | dose: 100.0 mg/kg/injection, schedule: Q04DX003 (ip), vehicle: acetone 99 % of control

O=C1OCC2CC3c4ccccc4C12c1ccccc13 (stereo unspecified)
inactive: [26] 100 % of control | [1] 98 % of control | [27] 92 % of control | [28] 93 % of control | [29] 105 % of control | [30] 97 % of control

N#Cc1ccc(O)c(N)c1
inactive: [21] 95 % of control | [22] 90 % of control | [23] 90 % of control

CCc1cc2c(cc1/C(C)=N/N=C(\C)c1cc3c(cc1CC)C(C)(C)CCC3(C)C)C(C)(C)CCC2(C)C
inactive: [24] 97 % of control | [25] 89 % of control | [31] 93 % of control

COc1cccc(OC)c1C(c1c(OC)cccc1OC)c1c(OC)cccc1OC
inactive: [15] 95 % of control | [16] 91 % of control | [17] 101 % of control

CCOC(=O)CCC(NC(=O)c1ccc(N(C)C(=O)OCc2ccccc2)cc1)C(=O)OCC (stereo unspecified)
inactive: dose: 200.0 mg/kg/injection, schedule: Q01DX001 (ip), vehicle: carboxymethylcellulose (CMC) 100 % of control | dose: 400.0 mg/kg/injection, schedule: Q01DX001 (ip), vehicle: carboxymethylcellulose (CMC) 94 % of control

O=C1OC(/C=C/c2ccccc2)=NC/1=C\c1ccc(O)cc1
inactive: [7] 104 % of control | [8] 93 % of control | [9] 93 % of control

COC1OC(CO)C(O)C(O)C1NC(C)=O (stereo unspecified)
inactive: [21] 106 % of control | [22] 103 % of control | [23] 104 % of control

c1ccc(CNc2ncn[nH]2)cc1
inactive: [13] 95 % of control | [14] 103 % of control | dose: 200.0 mg/kg/injection, schedule: Q01DX009 (ip), vehicle: saline with Tween-80 95 % of control

COc1ccc(/C=N/NC(=O)COCC(=O)N/N=C/c2ccc(OC)c(OC)c2)cc1OC
inactive: [24] 101 % of control | [25] 95 % of control | [31] 92 % of control

COC(=O)C(CCCN(C)C)(CCCN(C)C)c1cccc2ccccc12
inactive: [15] 96 % of control

CCCCCCCCCCCCCCCCCC(=O)Oc1c(C(C)(C)C)cc([N+](=O)[O-])c(C)c1[N+](=O)[O-]
inactive: [10] 92 % of control | [11] 92 % of control | [12] 96 % of control

COc1cccc(C2Nc3cc(Cl)ccc3S2)c1O (stereo unspecified)
inactive: [3] 105 % of control | [4] 109 % of control | [5] 105 % of control

COc1ccc(NC(=O)Oc2ccccc2C(N)=O)c(Cl)c1
inactive: [10] 96 % of control | [11] 104 % of control

Clc1ccc(Br)c(Cl)c1
inactive: [24] 98 % of control | [1] 94 % of control | [25] 94 % of control | [28] 109 % of control | [31] 92 % of control | [30] 93 % of control

COc1ccc2nc(C)c(COC(C)=O)cc2c1
inactive: [18] 100 % of control | [19] 98 % of control | [20] 105 % of control

O=C(CNC(=O)Nc1nccs1)N/N=C/c1ccc(Cl)cc1
inactive: [13] 106 % of control | [14] 89 % of control
